In patent publication US20040220259A1, “Topical treatment of dermatological disorders associated with reactive or dilated blood vessels” (priority 2003, published 2004):
Like-named read-outs stand apart in the source and are kept apart here. Values belong to the molecule of their own block, whether it stands above or below them.

Columns and labels:
[1] = pH over time of 0.1 M aqueous solutions of polyhydroxy-lactones (reaction with water to free acid); format: physicochemical; conditions: for pH in aqueous solution: 0.1 M; for pH: 0.1 M (1.78%) aqueous solution
From the text: In general, because the formulation is to be applied to the skin, it is preferred to have a pH of about three to eight, to minimize irritation, and/or may be in a controlled release formulation, as discussed below. In some cases, an adjustment of the pH of the composition may be desirable because of the tendency of some polyhydroxy-lactones to react with water molecules and form free acid molecules, thereby altering the pH of the overall composition over time until the equilibrium of the reaction has been reached. This lowered pH may cause discomfort to the patient, as the compositions may irritate or sting the skin area when applied. The reaction with water is evidenced by a continued decrease in pH of the solution. As is know in the art, a freshly prepared gluconolactone 1% aqueous solution has pH 3.6. The pH changes to 2.5 after 2 hours. See, The Merck Index, 13th Edition, #4470. […]

[2] = 1% aqueous solution, cited from earlier work

Structure (SMILES): CC1(C)COC(=O)C1O [D-pantolactone]
pH in aqueous solution ([1]; 1 hour): 6.5
pH in aqueous solution ([1]; 6 hours): 6.4
pH in aqueous solution ([1]; 24 hours): 5.9
pH in aqueous solution ([1]; 48 hours): 5.7
pH in aqueous solution ([1]; 72 hours): 5.7
pH in aqueous solution ([1]; fresh): 6.5

Structure (SMILES): O=C1O[C@H](CO)[C@@H](O)[C@H]1O [D-ribonolactone]
pH in aqueous solution ([1]; 1 hour): 6.1
pH in aqueous solution ([1]; 6 hours): 5.9
pH in aqueous solution ([1]; 24 hours): 3.9
pH in aqueous solution ([1]; 48 hours): 2.8
pH in aqueous solution ([1]; 72 hours): 2.6
pH in aqueous solution ([1]; fresh): 6.2

Structure (SMILES): O=C1O[C@H]([C@@H](O)CO)C(O)=C1O [Control, ascorbic acid, reference compound]
pH in aqueous solution ([1]; 1 hour): 2.1
pH in aqueous solution ([1]; 6 hours): 2.1
pH in aqueous solution ([1]; 24 hours): 2.1
pH in aqueous solution ([1]; 48 hours): 2.1
pH in aqueous solution ([1]; 72 hours): 2.1
pH in aqueous solution ([1]; fresh): 2.1

Structure (SMILES): O=C1O[C@H](CO)[C@@H](O)[C@H](O)[C@H]1O [D-gluconolactone]
pH ([2]; after 2 hours): 2.5
pH ([2]; freshly prepared): 3.6
pH ([1]; 0 minutes): 2.1
pH ([1]; 60 minutes): 2.0
pH ([1]; 360 minutes): 1.9
pH ([1]; 4320 minutes): 1.8
pH in aqueous solution ([1]; 1 hour): 2.0
pH in aqueous solution ([1]; 6 hours): 1.9
pH in aqueous solution ([1]; 24 hours): 1.9
pH in aqueous solution ([1]; 48 hours): 1.9
pH in aqueous solution ([1]; 72 hours): 1.8
pH in aqueous solution ([1]; fresh): 2.1

Structure (SMILES): O=C1OC[C@@H](O)[C@H]1O [D-erythronolactone]
pH in aqueous solution ([1]; 1 hour): 6.3
pH in aqueous solution ([1]; 6 hours): 6.2
pH in aqueous solution ([1]; 24 hours): 5.5
pH in aqueous solution ([1]; 48 hours): 3.2
pH in aqueous solution ([1]; 72 hours): 3.1
pH in aqueous solution ([1]; fresh): 6.3

Further lines, results first:

pH in aqueous solution ([1]; 1 hour): 5.7
pH in aqueous solution ([1]; 6 hours): 4.8
pH in aqueous solution ([1]; 24 hours): 3.4
pH in aqueous solution ([1]; 48 hours): 2.6
pH in aqueous solution ([1]; 72 hours): 2.3
pH in aqueous solution ([1]; fresh): 5.7
Structure (SMILES): O=C[C@H](O)[C@H]1OC(=O)[C@@H](O)[C@H]1O [D-glucuronolactone]

pH in aqueous solution ([1]; 1 hour): 5.6
pH in aqueous solution ([1]; 6 hours): 3.9
pH in aqueous solution ([1]; 24 hours): 3.1
pH in aqueous solution ([1]; 48 hours): 2.5
pH in aqueous solution ([1]; 72 hours): 2.3
pH in aqueous solution ([1]; fresh): 5.6
Structure (SMILES): O=C1O[C@@H]([C@H](O)[C@H](O)CO)[C@@H](O)C1O (stereo partly drawn) [D-glucoheptonolactone]

pH in aqueous solution ([1]; 1 hour): 5.0
pH in aqueous solution ([1]; 6 hours): 3.9
pH in aqueous solution ([1]; 24 hours): 3.2
pH in aqueous solution ([1]; 48 hours): 2.6
pH in aqueous solution ([1]; 72 hours): 2.4
pH in aqueous solution ([1]; fresh): 5.1
Structure (SMILES): O=C1O[C@@H]([C@H](O)CO)[C@H](O)[C@H]1O [D-galactonolactone]

pH in aqueous solution ([1]; 1 hour): 5.8
pH in aqueous solution ([1]; 6 hours): 4.6
pH in aqueous solution ([1]; 24 hours): 3.5
pH in aqueous solution ([1]; 48 hours): 3.0
pH in aqueous solution ([1]; 72 hours): 2.7
pH in aqueous solution ([1]; fresh): 6.2
Structure (SMILES): O=C1O[C@@H](C(O)CO)[C@H](O)C1O (stereo partly drawn) [D-gulonolactone]
